Data as given in patent US11512097B2, “Heterocyclic compounds as Delta-5 desaturase inhibitors and methods of use” (Amgen Inc., priority 2019, dated 2022).
pIC50: −log10 of the molar value.

Target: T1, Delta-5-Desaturase (D5D), membrane preparations of D5D-overexpressing HEK293 6E cells (Homo sapiens, UniProt O60427)
T1 construct: expressed in transfected cells; host or cells: HEK293 6E cells (membrane preparation)
Experiment: In vitro measurement of Delta-5-Desaturase inhibitory activity using DGLA-CoA and Arachidonyl-CoA mass spectrometric assays
Format: biochemical
Settings: D5D membrane 10 μg/mL, one-hour incubation, average of at least two independent runs
In short: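 Membranes from D5D-overexpressing HEK293 6E cells (10 μg/mL final) in pH 7.5 Tris buffer with MgCl2, octyl glucoside and TCEP were run with substrate solution holding 0.01 mM DGLA, NADH, ATP and CoA for 1 h at ambient temperature. Acetonitrile quench; DGLA-CoA and arachidonyl-CoA measured by RapidFire MRM-MS; 4-parameter IC50, ≥2 runs averaged.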

T1 sequence (O60427 whole entry, species assumed): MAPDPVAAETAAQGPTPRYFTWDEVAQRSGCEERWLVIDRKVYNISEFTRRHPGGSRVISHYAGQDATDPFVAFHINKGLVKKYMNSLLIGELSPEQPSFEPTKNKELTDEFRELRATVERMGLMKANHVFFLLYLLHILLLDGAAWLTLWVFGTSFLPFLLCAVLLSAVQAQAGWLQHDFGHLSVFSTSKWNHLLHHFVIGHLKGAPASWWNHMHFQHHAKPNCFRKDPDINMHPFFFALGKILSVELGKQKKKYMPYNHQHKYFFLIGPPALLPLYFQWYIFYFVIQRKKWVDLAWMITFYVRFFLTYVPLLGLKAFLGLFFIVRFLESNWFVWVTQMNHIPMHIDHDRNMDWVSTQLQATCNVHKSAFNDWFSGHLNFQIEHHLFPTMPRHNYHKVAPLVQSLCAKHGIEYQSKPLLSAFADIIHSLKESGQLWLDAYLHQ

pIC50: 7.71
SMILES: Cc1nn2c(=O)c(-c3cnn(CC(F)(F)C(F)(F)F)c3)c(C(F)(F)F)nc2s1 [Example 2, 2-methyl-6-[1-(2,2,3,3,3-pentafluoropropyl)-1H-pyrazol-4-yl]-7-(trifluoromethyl)-5H-[1,3,4]thiadiazolo[3,2-a]pyrimidin-5-one]
